Experimental findings from patent US20040092495A1, “Biguanide derivatives” (priority 2001, published 2004) are described below.

Assay [1] relates to perfused leg of N5STZ rats. Nature of the assay: Sorption of glucose on the perfused leg of N5STZ rats in absence of insulin. In kind it is in vivo. The settings on record: perfused back leg of N5STZ rats; for sorption of glucose: compound 10 μg/mL, 8 mmol/L glucose, n = 4.
Another assay deals with N5STZ rats. Nature of the assay: Antidiabetic activity in N5STZ rats (oral, change in glycaemia). In kind it is in vivo. The settings on record: four days of treatment, N5STZ diabetic rats, blood sample two hours after final administration. The method, then:
Study of the Antidiabetic Activity in N5STZ Rats
The oral antidiabetic activity of the compounds of the formula (I) was determined on an experimental model of non-insulin-dependent diabetes induced in the rats using steptozotocin.
The model of non-insulin-dependent diabetes is obtained in the rats by means of an injection of steptozotocin on the 5th day after birth.
The diabetic rats used are eight weeks old. The animals are housed, from the day of birth to the day of the experiment, in an animal house at a regulated temperature of 21 to 22° C. and subjected to a fixed cycle of light (from 7 a.m. to 7 p.m.) and darkness (from 7 p.m. to 7 a.m.). Their food consisted of a maintenance diet, and water and food were given “ad libitum”, with the exception of fasting two hours before the tests, during which period the food is removed (post-absorptive state).
The rats are treated orally with the test product for four (D4) days. Two hours after the final administration of the product and 30 minutes after the animals have been anaesthetised with pentobarbital sodium (Nembutal®), a 300 μl blood sample is taken from the end of the tail.
By way of example, results obtained with compound 1 prepared above are collated compared with metformin in the following table.

With `CN(C)C(=N)NC(=N)N1CCCC1.Cl` [Compound 1, Dimethylaminoiminomethylpyrrolidinecarboximidamide Hydrochloride], the sorption of glucose in assay [1] is recorded as 116.08 ± 20.63 (n = 4) μmol/g/l. Moreover, the “percentage change in the glycaemia on D4 relative to DO” value in the assay on N5STZ rats (25 mg/kg) is on record as −6%; in the assay on N5STZ rats (50 mg/kg), −23%; with N5STZ rats (100 mg/kg), −36%.

On to `CN(C)C(=N)N=C(N)N` [Metformin, metformin], for which the “induction of sorption of glucose by the muscle in absence of insulin (in words)” value in assay [1] is “no effect”. The sorption of glucose in assay [1] is 32.09 ± 7.25 (n = 4) μmol/g/l. In addition, the “percentage change in the glycaemia on D4 relative to DO” value is given as −13% in the assay with N5STZ rats (25 mg/kg), −22% with N5STZ rats (50 mg/kg) and −21% with N5STZ rats (100 mg/kg).
